Measured values taken from patent US20230295181A1, “INHIBITOR OF APOPTOSIS (IAP) PROTEIN ANTAGONISTS” (Sanford Burnham Prebys Medical Discovery Institute, priority 2020, published 2023).
pIC50, pKi: −log10 of the molar value. Where a name gives a salt, the structure may show the parent alone.

Legend:
SKOV-3 cancer cell lines = test: SKOV-3 cell viability after treatment with 10 μM test compound; type: cell-based; settings: for viability at 10 µM: Homo sapiens, SK-OV-3, 10 micromolar test compound, SKOV-3 cells; for % viability after treatment with 10 micromolar of test compound (SKOV-3 cells): 10 micromolar test compound, hydrochloride
Experimental: SKOV-3 cancer cell lines were treated with a test compound, either as a pure enantiomer or a mixture of stereoisomers, at a concentration of 10 μM. Cell viability was evaluated following treatment with a compound as disclosed in Table B. Viability of cancer cells following treatment is indicated according to the following legend:
A=0-25% viability B=26-50% viability C=>50% viability

XIAP-BIR3 = XIAP-BIR3 (Homo sapiens (Human), UniProt P98170); test: Fluorescence polarization (FP) assay, inhibition of SMAC peptide binding
Experimental: Compounds of the present disclosure were evaluated for potency and selectivity in a fluorescence polarization (FP) assay that measures inhibition of SMAC peptide binding to ML-IAP. To measure SMAC peptide binding, multi-well plate format FP assays based on the ability of SMAC peptides to bind the BIR domains of several IAPs are used to generate IC50 and Ki values for analogues. The FP assays utilize plasmid constructs encoding various full length IAPs or fragments for expression as either GST or His6-fusion proteins in bacteria. Compounds are evaluated for activity against several members of the IAP family, including the BIR domains of XIAP, cIAP1 and cIAP2 in order to generate selectivity profiles of the compounds disclosed herein. These assays also enable the identification and characterization of potency profiles of ML-IAP binding.
Activity of the compounds are indicated according to the following legend: […]

OVCAR-4 = test: Cell viability (CellTiterGlo), OVCAR-4; type: cell-based; settings: Homo sapiens
Experimental: (§1) Candidate compounds are tested in 384-well plates for effects on cell viability in the presence or absence of an appropriate conventional anticancer drug. Cell viability is indirectly monitored in the first instance using CellTiterGlo (Promega Corp., Madison, WI) (Table D). To determine if cell death is apoptotic, the induction of caspase activity is assessed utilizing the CaspaseGlo Assay system (Promega Corp., Madison, WI) (Table E). Cell viability is monitored 1 to 3 days after addition of compounds and conventional drugs. […] A compound of any of the formulae as disclosed herein is evaluated in combination with said anticancer drug to determine which ML-IAP antagonist can sensitize most efficaciously. Select candidate compounds are tested in 14 point drug dose response (DDR) curves in a 384-well format in order to establish potency in combination with decreasing concentrations of lung cancer relevant drug regimens. Furthermore, checker-board titrations of a conventional drug and the candidate molecules are performed to search for synergy (using ISOBOLOGRAM analysis). Compounds and combinations as described herein are also tested for cytotoxicity against normal human cells (e.g. primary fibroblasts, lymphocytes, hepatocytes, epithelial and endothelial cells) using known methods.
(§2) Cell viability was evaluated following treatment with a compound as disclosed in Table D. Viability of cancer cells following treatment is indicated according to the following legend: […]

[1] = In vivo PK plasma exposure in mice
Experimental: Pharmacokinetic (PK) studies are performed in vivo in mice for compounds as described herein. Standard formulations are evaluated, including hydroxypropyl methylcellulose, carboxymethylcellulose, and polyethylene glycol. For intravenous studies, compounds are administered via indwelling catheters in jugular vein and samples collected from the carotid artery. These experiments provide basic pharmacokinetic parameters including peak plasma concentration (Cmax), bioavailability (% F), exposure (AUC), half-life (t½), clearance (CL), volume of distribution (Vd), and brain levels. To measure bioavailability, a compound as described herein is administered to three animals/group, both orally (10 mg/kg) and intravenously (1 mg/kg). Intraperitoneally administration is also assessed in order to determine both brain and plasma levels of compounds.
The compounds described herein were tested in vivo in mice to measure PK plasma exposure as shown in Table F. The PK plasma values are indicated according to the following legend: […]

Caspase 3/7 (OVCAR-4) = test: Induction of caspase 3/7 activity (CaspaseGlo), OVCAR-4; type: cell-based; settings: Homo sapiens
Experimental: as §1
(§3) The induction of caspase activities was tested with a compound as disclosed in Table E. The activities are indicated according to the following legend: […]

Caspase 9 (SKOV-3) = test: Induction of caspase 9 activity (CaspaseGlo), SKOV-3; type: cell-based; settings: Homo sapiens, SK-OV-3
Experimental: as §1, §3

Caspase 3/7 (SKOV-3) = test: Induction of caspase 3/7 activity (CaspaseGlo), SKOV-3; type: cell-based; settings: Homo sapiens, SK-OV-3
Experimental: as §1, §3

SKOV-3 = test: Cell viability (CellTiterGlo), SKOV-3; type: cell-based; settings: Homo sapiens, SK-OV-3
Experimental: as §1, §2

Chain of XIAP-BIR3 (P98170 241-356): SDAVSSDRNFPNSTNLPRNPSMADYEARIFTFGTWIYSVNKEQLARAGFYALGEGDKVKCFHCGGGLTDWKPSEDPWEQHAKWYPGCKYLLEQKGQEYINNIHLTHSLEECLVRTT

Row | Compound | viability at 10 µM (SKOV-3 cancer cell lines) [%] | pKi (XIAP-BIR3) | pIC50 (OVCAR-4) | PK plasma exposure at 1 h (IP, 10 mg/kg) [1] | EC50 (Caspase 3/7 (OVCAR-4)) [nM] | EC50 (Caspase 9 (SKOV-3)) [nM] | EC50 (Caspase 3/7 (SKOV-3)) [nM] | pIC50 (SKOV-3) | % viability after treatment with 10 micromolar of test compound (SKOV-3 cells) (SKOV-3 cancer cell lines)
1 | CN[C@@H](C)C(=O)N[C@H]1CCOC2CC3(CC=CC3)C(C(=O)N[C@@H]3CCCc4ccccc43)N2C1=O (stereo partly drawn) [Compound 81, (4'S)-4′-((S)-2-(methylamino)propanamido)-5′-oxo-N—((R)-1,2,3,4-tetrahydronaphthalen-1-yl)-2′,3′,4′,5′,9′,9a′-hexahydro-7′H-spiro[cyclopentane-1,8′-pyrrolo[2,1-b][1,3]oxazepin]-3-ene-7′-carboxamide hydrochloride] | 0 to 25 | 7.00 to 8.00 | 7.00 to 8.00 | iii (iii=500-1000 nM) | 1 to 10 | 1 to 10 | 1 to 10 | 8.00 to 9.00 | –
2 | C=CCC1(CC=C)C[C@@H]2SCC[C@H](NC(=O)[C@H](C)NC)C(=O)N2[C@@H]1C(=O)N[C@@H]1CCCc2ccccc21 [Compound 29, (4S,9aS)-8,8-diallyl-4-((S)-2-(methylamino)propanamido)-5-oxo-N—((R)-1,2,3,4-tetrahydronaphthalen-1-yl)octahydropyrrolo[2,1-b][1,3]thiazepine-7-carboxamide hydrochloride] | – | – | < 6.00 | – | – | – | – | < 6.00 | A (A=0-25% viability)
3 | CCC1(CC)C[C@@H]2SCC[C@H](NC(=O)[C@H](C)NC)C(=O)N2C1C(=O)N[C@@H]1CCCc2ccccc21 (mixture of isomers) [Compound 38, (4S,9aS)-8,8-diethyl-4-((S)-2-(methylamino)propanamido)-5-oxo-N—((R)-1,2,3,4-tetrahydronaphthalen-1-yl)octahydropyrrolo[2,1-b][1,3]thiazepine-7-carboxamide hydrochloride] | – | < 7.00 | 7.00 to 8.00 | iii (iii=500-1000 nM) | 1 to 10 | 1 to 10 | 1 to 10 | 7.00 to 8.00 | A (A=0-25% viability)
4 | CN[C@@H](C)C(=O)N[C@H]1CCS(=O)(=O)[C@H]2CC(C)(C)[C@@H](C(=O)N[C@@H]3CCCc4ccccc43)N2C1=O [Compound 1, (4S,7S,9aS)-8,8-dimethyl-4-((S)-2-(methylamino)propanamido)-5-oxo-N—((R)-1,2,3,4-tetrahydronaphthalen-1-yl)octahydropyrrolo[2,1-b][1,3]thiazepine-7-carboxamide 1,1-dioxide hydrochloride] | > 50 | – | < 6.00 | – | – | – | – | < 6.00 | –
5 | CN[C@@H](C)C(=O)N[C@@H]1C(=O)N2[C@H](CC(C)(C)[C@H]2C(=O)N[C@@H]2CCCc3ccccc32)OC2CCCCC21 (single isomer, unassigned) [Compound 65, hydrochloride] | 0 to 25 | 7.00 to 8.00 | 7.00 to 8.00 | iii (iii=500-1000 nM) | 1 to 10 | 1 to 10 | 1 to 10 | 7.00 to 8.00 | –
6 | C=CCC1C[C@@H]2OCC[C@H](NC(=O)[C@H](C)NC)C(=O)N2[C@@H]1C(=O)N[C@@H]1CCCc2ccccc21 (stereo partly drawn) [Compound 15, (4S,9aS)-8,8-allyl-4-((S)-2-(methylamino)propanamido)-5-oxo-N—((R)-1,2,3,4-tetrahydronaphthalen-1-yl)octahydropyrrolo[2,1-b][1,3]oxazepine-7-carboxamide hydrochloride] | 26 to 50 | – | < 6.00 | – | – | – | – | 7.00 to 8.00 | –
7 | CC[C@H](NC)C(=O)N[C@H]1CCS[C@H]2CC(C)(C)[C@@H](C(=O)N[C@@H]3CCCc4ccccc43)N2C1=O.Cl [Compound 79, (4S,7S,9aS)-8,8-dimethyl-4-((S)-2-(methylamino)butanamido)-5-oxo-N—((R)-1,2,3,4-tetrahydronaphthalen-1-yl)octahydropyrrolo[2,1-b][1,3]thiazepine-7-carboxamide hydrochloride] | 0 to 25 | – | 7.00 to 8.00 | iii (iii=500-1000 nM) | 1 to 10 | 1 to 10 | 1 to 10 | 8.00 to 9.00 | –
8 | CCC1C[C@@H]2SCC[C@H](NC(=O)[C@H](C)NC)C(=O)N2[C@@H]1C(=O)N[C@@H]1CCCc2ccccc21 (stereo partly drawn) [Compound 36, hydrochloride] | 26 to 50 | – | 6.00 to 7.00 | – | – | – | – | 7.00 to 8.00 | –
9 | CN[C@@H](C)C(=O)N[C@H]1CCS[C@H]2CC3(CCCC3)[C@@H](C(=O)N[C@@H]3CCCc4ccccc43)N2C1=O [Compound 80, (4'S,7'S,9a'S)-4′-((S)-2-(methylamino)propanamido)-5′-oxo-N—((R)-1,2,3,4-tetrahydronaphthalen-1-yl)hexahydro-7′H-spiro[cyclopentane-1,8′-pyrrolo[2,1-b][1,3]thiazepine]-7′-carboxamide hydrochloride] | 0 to 25 | 7.00 to 8.00 | 8.00 to 9.00 | iii (iii=500-1000 nM) | < 1 | < 1 | < 1 | > 9.00 | –
10 | CN[C@@H](C)C(=O)N[C@H]1CCO[C@H]2CC(C)(C)[C@@H](C(=O)N[C@@H]3CCSc4ccccc43)N2C1=O [Compound 69, (4S,7S,9aS)-8,8-dimethyl-4-((S)-2-(methylamino)propanamido)-5-oxo-N—((R)-thiochroman-4-yl)octahydropyrrolo[2,1-b][1,3]oxazepine-7-carboxamide hydrochloride] | 0 to 25 | – | 6.00 to 7.00 | – | – | – | – | 7.00 to 8.00 | –
11 | CN[C@@H](C)C(=O)N[C@H]1Cc2c([nH]c3ccccc23)[C@H]2CC(C)(C)C(C(=O)N[C@@H]3CCCc4ccccc43)N2C1=O (stereo in doubt) [Compound 2, (3R, 6S,12bR)-2,2-dimethyl-6-((S)-2-(methylamino)propanamido)-5-oxo-N—((R)-1,2,3,4-tetrahydronaphthalen-1-yl)-1,2,3,5,6,7,12,12b-octahydropyrrolo[1′,2′:1,2]azepino[3,4-b]indole-3-carboxamide hydrochloride] | 26 to 50 | – | < 6.00 | – | – | – | – | < 6.00 | –
12 | CN[C@@H](C)C(=O)N[C@H]1CCO[C@H]2CC(C)(C)[C@@H](CN[C@@H]3CCCc4ccccc43)N2C1=O [Compound 56, (S)—N-((4S,7S,9aS)-8,8-dimethyl-5-oxo-7-((((R)-1,2,3,4-tetrahydronaphthalen-1-yl)amino)methyl)octahydropyrrolo[2,1-b][1,3]oxazepin-4-yl)-2-(methylamino)propanamide dihydrochloride] | > 50 | – | < 6.00 | – | – | – | – | < 6.00 | –
13 | CN[C@@H](C)C(=O)N[C@H]1Cc2cc(OC)ccc2[C@H]2CC(C)(C)[C@@H](C(=O)N[C@@H]3CCCc4ccccc43)N2C1=O [Compound 9, (6S,11bR)-9-methoxy-2,2-dimethyl-6-((S)-2-(methylamino)propanamido)-5-oxo-N—((R)-1,2,3,4-tetrahydronaphthalen-1-yl)-2,3,5,6,7,11b-hexahydro-1H-benzo[c]pyrrolo[1,2-a]azepine-3-carboxamide hydrochloride] | 0 to 25 | – | 6.00 to 7.00 | – | – | – | – | 6.00 to 7.00 | –
